Assay results from patent publication US20240299376A1, “METHOD OF TREATING A CONDITION USING A […] EFFECTIVE DOSE OF 1-(1-OXO-1,2-DIHYDROISOQUINOLIN-5-YL)-5-(TRIFLUOROMETHYL)-N-(2-(TRIFLUOROMETHYL)PYRIDIN-4-YL)-1H-PYRAZOLE-4-CARBOXAMIDE” (Janssen Pharmaceutica NV, priority 2021, published 2024).
Where two headings read alike, the source gives them in different places.

Tests used:
[1] = system: OCI-LY10 human DLBCL xenografts; assay: Antitumor efficacy in established OCI-LY10 human DLBCL xenografts; type: in vivo, NSG mice; settings: 3.5 weeks
Experimental: Tumor volume was calculated using the formula: tumor volume (mm^3)=(Dxd^2/2); where ‘D’ represents the larger diameter, and ‘d’ the smaller diameter of the tumor as determined by caliper measurements. Tumor volume data was graphically represented as the mean tumor volume±SEM.
Percent tumor growth inhibition (TGI) was defined as the difference between mean tumor volumes of the treated and control group, calculated as
where TVc is the mean tumor volume of a given control group and TVt is the mean tumor volume of the treatment group. As defined by National Cancer Institute criteria, ≥60% TGI is considered biologically significant.
Group tumor volumes are graphed as the mean+SEM. Mice were implanted SC on the right flank on Day 0.
OCY-LY10 cells were maintained at 37° C. in a humidified atmosphere (5% CO2, 95% air), in RPMI-1640 medium with GlutaMAX™, supplemented with 10% Fetal Bovine Serum (Heat Inactivated at 57° C.) and 1% Penicillin-Streptomycin. Each mouse received 1×10^6 OCI-LY10 cells in serum-free RPMI-1640 medium with Matrigel in 1:1 ratio in a total volume of 0.2 mL. Cells were implanted SC in the right flank using a 1 mL syringe and a 26-gauge needle. The day of tumor implantation was designated as Day 0.
For study 4, study animals were randomly assigned into treatment groups, when the mean OCI-LY10 tumor volume reached 169 mm^3 (Day 15 post-tumor cell implantation). Treatment was initiated the day after randomization (Day 16). Treatment for the antitumor efficacy study lasted for 24 days until Day 40, when most animals in the Vehicle control group reached ethical tumor volume limits. […] Blood was collected from the retro-orbital sinus and submitted for bioanalytical analysis.

Single IV dose plasma PK = type: in vivo, mouse
Experimental: Single intravenous (IV) dose PK was conducted in mice (two strains), rats, monkeys, and dogs at a dose of 1 mg/kg in 70% PEG400 (PEG400/water 70:30) by bolus injection. The time course for plasma sample was optimized to fully characterize the disposition profile in each species. PK analysis was by non-compartmental method.

[2] = system: human cytokine IL-10 in serum; assay: Serum IL-10 (MSD assay) after a single dose in OCI-LY10 tumor-bearing NSG mice; type: in vivo
Experimental: NF-κB signaling regulates the secretion of multiple cytokines, including interleukin-10 (IL-10). MALT1 inhibition results in a decrease of IL-10 transcription and translation as well as secretion. Levels of the human cytokine IL-10 were measured in the serum of OCI-LY3 or OCI-LY10 ABC-DLBCL tumor bearing mice using a Mesoscale Discovery assay (MSD). 25 μL of mouse serum was transferred to an MSD plate (V-Plex Proinflammation Panel I (human) kit) and incubated together with 25 μL diluent 2 (MSD; R51BB-3) for 2 hours at RT followed by a 2-hour incubation with IL-10 antibody solution. Plates were read on a SECTOR imager. Serum human IL-10 levels were correlated to serum compound concentration.
Serum samples were collected at 2, 12, and 24 hours post dose and tumor samples were collected 24 hours post dose. Human IL-10 was measured in serum samples using a Mesoscale assay.
Serum IL-10 levels are graphed as the mean+/−standard deviation.
For PD, when tumors reached 550-750 mm^3 animals were assigned randomly into the treatment groups and treated as presented in Table 5. Dose volumes were adjusted to individual body weights at 10 mL/kg. For both PD studies, serum was collected at 2 and 12 hours post treatment from the retro-orbital sinus. At 24 hours post treatment, animals were bled via decapitation and tumors were excised, weighed, and divided for bioanalysis and ex vivo PD analysis. Blood was centrifuged at 10,000 rpm and serum divided for bioanalysis and PD analysis.

[3] = Preliminary food effect assessment at steady state; type: in vivo, human
Experimental: Preliminary food effect was assessed in 8 subjects at steady state: 2 subjects at 100 mg (2×50 mg), 1 subject at 400 mg (2×200 mg), 1 subject at 200 mg (4×50 mg) and 4 subjects at 300 mg (3×100 mg). In the fasting condition, JNJ-67856633 was administered after overnight fasting for at least 8 hours. In the fed condition, following an overnight fast of at least 8 hours, the subjects were given a high-fat meal 30 minutes before drug intake. In both conditions, no food was allowed for at least 4 hours after study drug intake. Individual plasma concentrations of JNJ-67856633 under fasting and fed conditions using 50 mg or 200 mg capsules are shown in Table 16.

[4] = male, plasma, Mouse, CD-1, 3M, 1 mg/kg IV in 70% PEG400, mean
[5] = male, plasma, Mouse, NSG, 3M, 1 mg/kg IV in 70% PEG400, mean

O=C(Nc1ccnc(C(F)(F)F)c1)c1cnn(-c2cccc3c(=O)[nH]ccc23)c1C(F)(F)F [Compound A, 1-(1-oxo-1,2-dihydroisoquinolin-5-yl)-5-(trifluoromethyl)-N-[2-(trifluoromethyl)pyridin-4-yl]-1H-pyrazole-4-carboxamide]
TGI ([1]; 3 mg/kg BID PO, not statistically significant): 11% | TGI ([1]; 10 mg/kg BID PO): 41% | TGI ([1]; 30 mg/kg BID PO): 54% | TGI ([1]; 100 mg/kg BID PO): 62% | Vd (Single IV dose plasma PK; CD-1 and NSG (mouse), Sprague-Dawley (rat), beagle (dog), plasma, similar across all species (mouse, rat, monkey, dog), IV 1 mg/kg, read-out: apparent volume of distribution at steady state): ~1 L/kg | AUC(0-inf) (Single IV dose plasma PK; [4]): 12.2 µg·h/mL | C0 (Single IV dose plasma PK; [4]): 940 ng/mL | clearance (Single IV dose plasma PK; [4]): 1.3 mL/min/kg | Vd (Single IV dose plasma PK; male, plasma, Mouse, CD-1, 3M, 1 mg/kg IV in 70% PEG400, mean, read-out: Vdss): 1.4 L/kg | AUC(0-inf) (Single IV dose plasma PK; [5]): 5.49 µg·h/mL | C0 (Single IV dose plasma PK; [5]): 1130 ng/mL | clearance (Single IV dose plasma PK; [5]): 3.04 mL/min/kg | half-life (Single IV dose plasma PK; [5]): 5.28 h | Vd (Single IV dose plasma PK; male, plasma, Mouse, NSG, 3M, 1 mg/kg IV in 70% PEG400, mean, read-out: Vdss): 1.23 L/kg | CL as fraction of liver blood flow (LBF) (Single IV dose plasma PK; mouse, LBF 90 mL/min/kg): 1.4% | effect of adding precipitation inhibitor on exposure and PD ([2]; 100 mg/kg plus precipitation inhibitor PVP/VA64, 24 hours): increased exposures correlating to increased PD shutdown at 24 hours | inhibition or reduction of serum IL-10 ([2]; single oral dose 3 mg/kg, 12 hours post dose): intermediate inhibition or reduction | inhibition or reduction of serum IL-10 ([2]; single oral dose 10 mg/kg, 12 hours post dose): strong inhibition or reduction | inhibition or reduction of serum IL-10 ([2]; single oral dose 30 mg/kg, 12 hours post dose): completely inhibited or reduced serum IL-10 levels | inhibition or reduction of serum IL-10 ([2]; single oral dose 100 mg/kg, 12 hours post dose): completely inhibited or reduced serum IL-10 levels | inhibition or reduction of serum IL-10 ([2]; single oral dose, 24 hours post dose): rebounded at 24 hours post dose | Cmax ([3]; 2 × 50 mg, fasted condition, steady state, individual values, N = 2, listed as JNJ-67856633): 18200 ng/mL | Cmax ([3]; 2 × 50 mg, fed condition (high-fat meal), steady state, individual values, N = 2, listed as JNJ-67856633): 18400 ng/mL | AUCτ ([3]; 2 × 50 mg, fed condition, steady state, individual values, N = 2, listed as JNJ-67856633): 421 µg·h/mL | steady state exposure (Cmax and AUCτ) fasting vs fed ([3]; 8 subjects at steady state): comparable | AUC ([3]; human, plasma, oral, 100 mg, 2 × 50 mg, fasted condition, steady state, N = 2): 313 µg·h/mL | Cmax ([3]; human, plasma, oral, 100 mg, 2 × 50 mg, fasted condition, steady state, individual values, N = 2, read-out: Cmax): 15300 ng/mL | Tmax ([3]; human, plasma, oral, 100 mg, 2 × 50 mg, fasted condition, steady state, individual values, N = 2, read-out: Tmax): 2 h | Cmax ([3]; human, plasma, oral, 100 mg, 2 × 50 mg, fed condition (high-fat meal), steady state, individual values, N = 2, read-out: Cmax): 13400 ng/mL | AUC ([3]; human, plasma, oral, 100 mg, 2 × 50 mg, fed condition, steady state, individual values, N = 2): 304 µg·h/mL | Tmax ([3]; human, plasma, oral, 100 mg, 2 × 50 mg, fed condition, steady state, individual values, N = 2, read-out: Tmax): 6 h | AUC ([3]; human, plasma, oral, 200 mg, 4 × 50 mg, fasted condition, steady state, N = 1): 958 µg·h/mL | Cmax ([3]; human, plasma, oral, 200 mg, 4 × 50 mg, fasted condition, steady state, N = 1, read-out: Cmax): 47500 ng/mL | Tmax ([3]; human, plasma, oral, 200 mg, 4 × 50 mg, fasted condition, steady state, N = 1, read-out: Tmax): 1 h | AUC ([3]; human, plasma, oral, 200 mg, 4 × 50 mg, fed condition, steady state, N = 1): 1010 µg·h/mL | Cmax ([3]; human, plasma, oral, 200 mg, 4 × 50 mg, fed condition, steady state, N = 1, read-out: Cmax): 48400 ng/mL | Tmax ([3]; human, plasma, oral, 200 mg, 4 × 50 mg, fed condition, steady state, N = 1, read-out: Tmax): 24 h | AUC ([3]; human, plasma, oral, 400 mg, 2 × 200 mg, fasted condition, steady state, N = 1): 1100 µg·h/mL | Cmax ([3]; human, plasma, oral, 400 mg, 2 × 200 mg, fasted condition, steady state, N = 1, read-out: Cmax): 61100 ng/mL | AUC ([3]; human, plasma, oral, 400 mg, 2 × 200 mg, fed condition, steady state, N = 1): 1320 µg·h/mL | Cmax ([3]; human, plasma, oral, 400 mg, 2 × 200 mg, fed condition, steady state, N = 1, read-out: Cmax): 64000 ng/mL | Tmax ([3]; human, plasma, oral, fasting conditions, 8 subjects at steady state, read-out: Tmax range): 0 to 4 h | Tmax ([3]; human, plasma, oral, fed conditions, 8 subjects at steady state, read-out: Tmax range): 0.5 to 24 h
